How the values were obtained:
[1] = UV-Vis spectra and calibration curve of FMR-DAAs (excitation/emission maxima, absorptivity); assay type: physicochemical; design: Absorptivity (ε): unit not given here; details: for Max. λEm / Max. λEx: PBS (pH 7.4) containing 50% glycerol, scan range 350 to 800 nm; for Absorptivity (ε): PBS (pH 7.4), Beer's Law
Description: The excitation and emission wavelengths of FMR-DAAs were measured by SpectraMax M2 plate reader using disposable cuvette (polymethyl methacrylate). UV-Vis spectra of FMR-DAAs were measured by scanning within a range from 350 to 800 nm with an increment of 1 nm. The wavelength at maximum absorbance (Ex) and emission (Em) of FMR-DAAs were recorded.
For plotting calibration curves, FMR-DAAs (100 mM stock solution, DMSO) were diluted into 1×PBS (pH 7.4) and the corresponding A. absorbance of FMR-DAAs was measured as a function of concentration (0.1, 0.05, 0.025 and 0.0125 mM). The absorptivity was calculated as described by Beer's Law. The spectra of molecular rotor designs are illustrated in FIG. 7 (panels (i)-(vi)).

[2] = Measurement of viscosity sensitivity of FMR-DAAs in PBS-glycerol; assay type: physicochemical; details: free probe 0.1 mM in 1×PBS containing 0-80% glycerol, pH 7.4
Description: For free FMR-DAAs measurement, FMR-DAAs (100 mM stock solution, DMSO) was diluted in PBS-glycerol solution (1×PBS containing 0%, 20%, 40%, 50%, 60% and 80% glycerol, pH 7.4) to a final concentration of 0.1 mM. The solutions were transferred into 96-well micro-plate and the fluorescence was measure at corresponding Em wavelength mentioned above using SpectraMax M2 plate reader (corresponding Ex wavelength was used). The viscosity sensitivity was calculated using the following equation, where r is viscosity of the solvents, I is the emission intensity of the FMR-DAAs, C is a constant depending on the temperature, and x is the viscosity sensitivity (Zhou el, EJOC, 2011, 4773). The Ig, 50%/Iw value represents the ratio of fluorescent intensity of the 50% glycerol sample to that of the 0% glycerol sample.

[3] = Quantum yield measurement (fluorescein standard); assay type: physicochemical; details: PBS (pH 7.4) containing 50% glycerol; fluorescein as standard
[4] = Measurement of thermal stability of FMR-DAAs; assay type: physicochemical; details: PBS (pH 7.4), 24-hours incubation at 60° C.
Description: FMR-DAAs (100 mM stock solution, DMSO) was diluted with 1×PBS (pH7.4) to a final concentration of 0.05 mM. The FMR-DAAs solution was then incubated at 60° C. and kept from light exposure. […]

S. aureus PBP4 [5] = biological target: T1, S. aureus PBP4 (Staphylococcus aureus, UniProt P72355); test: In vitro real-time D,D-transpeptidation assay using Rf470 and diacetyl-L-lysine-D-alanine-D-alanine substrate; assay type: biochemical; details: for Effect on initial rate of fluorescence increase (PBP4 enzyme reaction): antibiotics 0.1 equiv. to the substrate; for Effect of added antibiotic on D,D-transpeptidation activity (fluorescence signal increase): antibiotic added to Rf470/substrate/PBP4 reaction
T1 sequence (P72355 25-431): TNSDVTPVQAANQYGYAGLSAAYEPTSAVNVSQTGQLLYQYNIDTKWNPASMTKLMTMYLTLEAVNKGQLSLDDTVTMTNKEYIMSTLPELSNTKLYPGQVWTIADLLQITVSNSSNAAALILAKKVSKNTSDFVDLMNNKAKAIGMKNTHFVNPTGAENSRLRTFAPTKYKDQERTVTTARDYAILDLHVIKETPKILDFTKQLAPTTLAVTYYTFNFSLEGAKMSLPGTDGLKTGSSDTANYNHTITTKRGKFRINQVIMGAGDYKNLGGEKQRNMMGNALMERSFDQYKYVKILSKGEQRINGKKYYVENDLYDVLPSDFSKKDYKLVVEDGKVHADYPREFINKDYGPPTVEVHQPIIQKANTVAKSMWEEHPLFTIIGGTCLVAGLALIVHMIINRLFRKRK
Text: FIG. 12A depicts an exemplary scheme for the assay procedure for in vitro D,D-transpeptidation assays using Rf470 and isolated S. aureus PBP4.
FIG. 12E depicts screening of antibiotic effect on S. aureus PBP4 activity. Kanamycin and Chloramphenicol: ribosome activity inhibitors; Piperacillin, Ampicillin, Penicillin G, Carbenicillin and Cefoxitin are β-lactam antibiotics. A 1:10 ratio of antibiotics to the substrate was used.
We took advantage of the fact that FMR-DAAs are fluorogenic probes that fluoresce upon PG incorporation to develop a continuous, spectrophotometric assay to monitor the formation of transpeptidation product without the need of quenching and purification. The components of the assay included FMR-DAA probes as the fluorescence reporter, synthetic diacetyl-L-lysine-D-alanine-D-alanine as the substrate (acyl donor) and Staphylococcus aureus PBP4 enzyme. S. aureus PBP4 is known to have D,D-transpeptidation activity responsible for the highly cross-linked PG layer in staphylococci, as well as β-lactamase activity to degrade penicillin-like antibiotics.
Rf470, the synthetic substrate and S. aureus PBP4 were incubated in a 96-well plate and the emission fluorescence was measured overtime using a plate reader (5-minute interval, 1 hour in total, FIG. 12A). […] The formation of cross-linked product was confirmed by reverse-phase HPLC and high-resolution mass spectrometry (FIG. 12C, D).
(§1) We further evaluated the utility of this assay for in vitro high-throughput screening for antibiotics. We tested various antibiotics (0.1 equiv. to the substrate) and measured the initial rate of fluorescence increase (FIG. 12E). […] To further confirm the inhibitory effect of these β-lactams toward S. aureus PBP4, we performed a Nitrocefin assay, which tests PBP's β-lactamase activity, in the presence of the antibiotics. […] We also note that this assay can be conducted in an end-point manner, providing an efficient way to test a large number of samples since only a single measurement is required per sample. End-point assays potentially enable high-throughput applications for drug screening and transpeptidation reaction studies.

S. aureus PBP4 [6] = biological target: T1, S. aureus PBP4; test: Nitrocefin assay of PBP4 β-lactamase activity in the presence of antibiotics; assay type: biochemical; details: in the presence of the antibiotic
Text: FIG. 12F depicts β-lactamase activity of S. aureus PBP4 in the presence of antibiotics. Nitrocefin degradation by PBP4 results in an increase of absorbance at 500 nm, which is used to measure β-lactamase activity. Low activity stands for a strong inhibition effect of the antibiotics toward PBP4, and vice versa. Values are normalized to the “no antibiotic” sample.
as §1

[7] = tested on: LdtA, encoded by V. cholerae vc1268; test: In vitro FMR-DAA assay with L,D-transpeptidase and synthetic tetrapeptide (diacyl-L-Ala-D-Glu-L-Lys-D-Ala); assay type: biochemical; details: Rf470 + LdtA + synthetic tetrapeptide
Text: (§2) In addition to PBPs, we tested the in vitro assay in other classes of transpeptidases: L,D-transpeptidase (Ldts) and Sortases. It is known that LdtA, encoded by V. cholerae vc1268, is responsible for 3′-3′ cross-linkage formation. […] On the other hand, S. aureus Sortase A (SrtA) is responsible for anchoring surface proteins to PG through a sequence-specific transpeptidation reaction. It recognizes a conserved protein LPXTG motif, and cross-links it with PG pentaglycine in S. aureus. […] Control experiments in the absence of the substrate led to no signal change.

[8] = biological target: S. aureus Sortase A (SrtA) (Staphylococcus aureus, UniProt Q2FV99); test: In vitro FMR-DAA assay with Sortase A and synthetic pentapeptide motif (LPETG); assay type: biochemical
Chain of S. aureus Sortase A (SrtA) (Q2FV99 whole entry): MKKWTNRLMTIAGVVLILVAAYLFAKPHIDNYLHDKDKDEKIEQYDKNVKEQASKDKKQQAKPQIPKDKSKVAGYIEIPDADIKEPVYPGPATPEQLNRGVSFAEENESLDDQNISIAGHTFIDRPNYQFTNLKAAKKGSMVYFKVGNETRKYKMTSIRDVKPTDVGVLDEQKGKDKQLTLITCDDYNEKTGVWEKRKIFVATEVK
Text: as §2

bacterial PG = test: Wash-free labeling of bacterial PG with FMR-probe-D-Lys conjugates, fluorescence microscopy; assay type: cell-based
Text: FIG. 3E depicts exemplary labeling of bacterial PG with HADA probe (panel (i)) and FMR-probe-D-Lys conjugates having the FMR probe moiety of formula (I), wherein R^1 consists of a —CN moiety (denoted as “Rot1DL” (panel (ii))) without washing prior to fluorescence. Compared to conventional FDAAs (e.g., HADA), FMR-DAAs eliminate the need to wash excess probe.
The presence of the carboxylic acid provides a site for covalent coupling of the FMR-probe to an available amino group on a D-amino acid backbone, such as D-amino-Ala or D-Lys. As FMR-probes having R^1 consist of a cyano moiety provide slight affinity for bacterial membranes, result in low levels of nonspecific labeling and some instability of the α,β-unsaturated malononitrile moiety under typical experimental conditions, such FMR-probes are less preferred for use. In such cases, FMR-probes having R^1 consisting of a carboxylic acid can prevent non-specific membrane binding and increase stability of the probe.

Row | Compound | Max. λEm [1] | Max. λEx [1] | Absorptivity (ε) [1] | Viscosity sensitivity (χ) [2] | Thermo-stability (signal retention of absorbance vs initial value) [4] [%] | Effect on initial rate of fluorescence increase (PBP4 enzyme reaction) (S. aureus PBP4 [5]) | also measured
1 | N#CC(=Cc1ccc(-c2ccc3c(c2)CCCN3CCC(=O)O)s1)C(=O)NCCCCC(N)C(=O)O (stereo in doubt) [Rf490, (E)-N^6-(3-(5-(1-(2-carboxyethyl)-1,2,3,4-tetrahydroquinolin-6-yl)thiophen-2-yl)-2-cyanoacryloyl)-L-lysine] | 660 | 490 | 25409 | 0.67 ± 0.003 | 96.9 ± 9.8 | – | Red-shift in Max. λEX compared to Rf470 [1]: 20 nm; Quantum Yield (ϕ) [3]: 0.035
2 | CC1(C)S[C@@H]2[C@H](NC(=O)[C@H](N)c3ccccc3)C(=O)N2[C@H]1C(=O)O [Ampicillin] | – | – | – | – | – | partial inhibition | Inhibition of PBP4 β-lactamase activity (in words) (S. aureus PBP4 [6]): did not inhibit PBP4s β-lactamase activity effectively
3 | CC1(C)S[C@@H]2[C@H](NC(=O)C(C(=O)O)c3ccccc3)C(=O)N2[C@H]1C(=O)O (some centres unmarked) [Carbenicillin] | – | – | – | – | – | inhibited the enzyme reaction almost completely | –
4 | CO[C@@]1(NC(=O)Cc2cccs2)C(=O)N2C(C(=O)O)=C(COC(N)=O)CS[C@@H]21 [Cefoxitin] | – | – | – | – | – | inhibited the enzyme reaction almost completely | Effect of added antibiotic on D,D-transpeptidation activity (fluorescence signal increase) (S. aureus PBP4 [5]): total inhibition
5 | O=C(N[C@H](CO)[C@H](O)c1ccc([N+](=O)[O-])cc1)C(Cl)Cl [Chloramphenicol] | – | – | – | – | – | – | Effect of added antibiotic on D,D-transpeptidation activity (fluorescence signal increase) (S. aureus PBP4 [5]): comparable to the non-treated sample
6 | NC(CNC(=O)c1cc2ccc(O)cc2oc1=O)C(=O)O (centres unmarked) [HADA, reference compound] | 450 | 400 | 109538 | 0.025 ± 0.003 | 80.0 ± 1.1 | – | –
7 | CC1(C)S[C@@H]2[C@H](NC(=O)Cc3ccccc3)C(=O)N2[C@H]1C(=O)O [Penicillin G] | – | – | – | – | – | partial inhibition | –
8 | CCN1CCN(C(=O)N[C@@H](C(=O)N[C@@H]2C(=O)N3[C@@H]2SC(C)(C)[C@@H]3C(=O)O)c2ccccc2)C(=O)C1=O [Piperacillin] | – | – | – | – | – | did not have a significant effect | Inhibition of PBP4 β-lactamase activity (in words) (S. aureus PBP4 [6]): did not inhibit PBP4s β-lactamase activity effectively
9 | N#C/C(=C\c1ccc2c(c1)CCCN2CCC(=O)NCCCC[C@@H](N)C(=O)O)C(=O)O [Rf420, (E)-N6-(3-(6-(2-carboxy-2-cyanovinyl)-3,4-dihydroquinolin-1(2H)-yl)propanoyl)-D-lysine] | 490 | 420 | 19761 | 0.683 ± 0.013 | 99.8 ± 1.2 | – | Quantum Yield (ϕ) [3]: 0.012
10 | N#C/C(=C\c1ccc(-c2ccc3c(c2)CCCN3CCC(=O)NCCCC[C@@H](N)C(=O)O)s1)C(=O)O [Rf470, (E)-N6-(3-(6-(5-(2-carboxy-2-cyanovinyl)thiophen-2-yl)-3,4-dihydroquinolin-1(2H)-yl)propanoyl)-D-lysine] | 640 | 470 | 33106 | 0.642 ± 0.022 | 99.4 ± 1.4 | – | Quantum Yield (ϕ) [3]: 0.042; Probe fluorescence intensity over time (D,D-transpeptidation signal) (S. aureus PBP4 [5]; probe + synthetic substrate + S. aureus PBP4, 96-well plate, 5-minute interval, 1 hour): increase in fluorescence intensity overtime; Fluorescence signal over time with LdtA [7]: time-lapse increase of fluorescence signal; Rf470 signal over time with Sortase A [8]: increase of Rf470 signal over time
11 | N#CC(C#N)=Cc1ccc2c(c1)CCCN2CCC(=O)NCCCC[C@@H](N)C(=O)O [Rotor No. 1, N6-(3-(6-(2,2-dicyanovinyl)-3,4-dihydroquinolin-1(2H)-yl)propanoyl)-D-lysine] | – | – | – | – | – | – | Non-specific affinity to other cellular structures / membranes (bacterial PG; FIG. 3G, no washing): low non-specific affinity to other cellular structures; Incorporation into PG sacculi (bacterial PG; labeled bacterial PG, FIG. 3F): covalently incorporated into PG sacculi
